Data as given in patent US12202861B2, “Inducible, tunable, and multiplex human gene regulation using CRISPR-Cpf1” (The General Hospital Corporation, priority 2017, dated 2025).

Tests used:
Assay type in all cases: cell-based, human
AR = assay: RT-qPCR activation of endogenous AR gene promoter in HEK293 cells; settings: bi-partite, with dLbCpf1 fusions harboring two, three or four DmrA domains, single crRNA
Method: (§1) FIGS. 1A-1E. Targeted human endogenous gene regulation using individual crRNAs with dLbCpf1-based activators • (A) Schematic showing direct dLbCpf1-VPR and dLbCpf-p65 activator fusion proteins. • (B) Activities of dLbCpf1-p65 or dLbCpf1-VPR using single crRNAs at three endogenous human genes (HBB, AR, and NPY1R) in human HEK293 cells. Relative activation of the indicated gene promoters was measured by RT-qPCR. Three separate individual crRNAs were targeted within promoter sequence 1 kb upstream of the transcription start site for each gene. Relative mRNA expression is calculated by comparison to the control sample in which no crRNA is expressed. (C) Analysis of various crRNAs targeted to the human CD5 and CD22 promoters. 32 crRNAs (16 for each gene) were designed to target sites located within promoter sequences 1 kb upstream or 500 bps downstream of the TSS of each gene. Repetitive sequences were not targeted. After 72 hours post-transfection, cells were stained with fluorescently labeled antibody for CD5 or CD22 protein and fluorescent-positive cells were quantified by flow cytometry. Error bars represent s.e.m. for three biological replicates. […] (D) Schematic illustrating drug-inducible bi-partite dLbCpf1-based activator fusion proteins. dLbCpf1 is fused to one to four DmrA domains and VPR or p65 is fused to a DmrC domain. Because DmrA and DmrC interact only in the presence of an A/C-heterodimerizer drug (red diamond), the bi-partite activator is only reconstituted in the presence of the drug. (E) Activities of drug-inducible bi-partite dLbCpf1-based activators using single crRNAs at three endogenous human genes (HBB, AR, and NPY1R) in human HEK293 cells. Relative activation of the indicated gene promoters was measured by RT-qPCR. […] Data shown in (B) and (E) represent three biological independent replicates and error bars indicate standard deviation (SD) of three technical replicates.
(A) Schematic of an expression cassette designed to express multiple gRNAs encoded on a single transcript. The arrows indicate cleavage sites being processed by the RNase activity of dLbCpf1. (B) Schematic illustrating multiplex expression of three crRNAs each targeted to a different endogenous gene promoter in a single cell. […] Transcripts were measured in HEK293 cells using RT-qPCR with relative mRNA expression calculated by comparison to the control sample in which no crRNA is expressed. […] RNA expression was measured by RT-qPCR and relative expression shown was calculated by comparison to a control sample in which no crRNA is expressed. […] Transcripts were measured in HEK293 cells using RT-qPCR with relative mRNA expression calculated by comparison to the control sample in which no crRNA is expressed. […]

HBB = assay: RT-qPCR activation of endogenous HBB gene promoter in HEK293 cells; settings: single crRNA
Method: as §1
(§2) (A) Schematic of an expression cassette designed to express multiple gRNAs encoded on a single transcript. The arrows indicate cleavage sites being processed by the RNase activity of dLbCpf1. (B) Schematic illustrating multiplex expression of three crRNAs each targeted to a different endogenous gene promoter in a single cell. (C) Simultaneous activation of three endogenous human genes using crRNAs expressed from a multiplex transcript or from individual transcripts with dLbCpf1-VPR direct fusions (left panel), dLbCpf1-DmrA(×4) and DmrC-VPR fusions (middle panel), and dLbCpf1-DmrA(×4) and DmrC-p65 fusions (right panel). Transcripts were measured in HEK293 cells using RT-qPCR with relative mRNA expression calculated by comparison to the control sample in which no crRNA is expressed. (D) Activities of MST crRNA with different dLbCpf1-based activators in human U20S cells. Graphs showing activation of three endogenous human genes with dLbCpf1-VPR direct fusions, dLbCpf1-DmrA(×4) and DmrC-p65 fusions, and dLbCpf1-DmrA(×4) and DmrC-VPR fusions and crRNAs expressed from a multiplex single transcript (MST) or from transcripts encoding a single crRNA. RNA expression was measured by RT-qPCR and relative expression shown was calculated by comparison to a control sample in which no crRNA is expressed. (E) Schematic illustrating multiplex expression of three crRNAs each targeted to the same endogenous gene promoter in the same cell. (F) Activities of direct dLbCpf1-p65 or dLbCpf1-VPR fusions with sets of three crRNAs expressed from a multiplex transcript or from individual transcripts on the HBB, AR, or NPY1R endogenous gene promoters. Transcripts were measured in HEK293 cells using RT-qPCR with relative mRNA expression calculated by comparison to the control sample in which no crRNA is expressed. (G) Activities of dLbCpf1-DmrA(×4) and DmrC-VPR fusions or with dLbCpf1-DmrA(×4) and DmrC-p65 fusions with sets of three crRNAs expressed from a multiplex transcript or from individual transcripts on the HBB, AR, or NPY1R endogenous gene promoters. […]

NPY1R = assay: RT-qPCR activation of endogenous NPY1R gene promoter in HEK293 cells; settings: single crRNA
Method: as §1, §2

HBB, AR, and NPY1R = assay: Simultaneous (multiplex) activation of three endogenous genes in HEK293 cells, RT-qPCR; settings: multiplex transcript vs single crRNA, HEK293, across the dLbCpf1-based activators
Text: (A) Schematic of an expression cassette designed to express multiple gRNAs encoded on a single transcript. The arrows indicate cleavage sites being processed by the RNase activity of dLbCpf1. (B) Schematic illustrating multiplex expression of three crRNAs each targeted to a different endogenous gene promoter in a single cell. (C) Simultaneous activation of three endogenous human genes using crRNAs expressed from a multiplex transcript or from individual transcripts with dLbCpf1-VPR direct fusions (left panel), dLbCpf1-DmrA(×4) and DmrC-VPR fusions (middle panel), and dLbCpf1-DmrA(×4) and DmrC-p65 fusions (right panel). Transcripts were measured in HEK293 cells using RT-qPCR with relative mRNA expression calculated by comparison to the control sample in which no crRNA is expressed. […] RNA expression was measured by RT-qPCR and relative expression shown was calculated by comparison to a control sample in which no crRNA is expressed. […] Transcripts were measured in HEK293 cells using RT-qPCR with relative mRNA expression calculated by comparison to the control sample in which no crRNA is expressed. […] Transcripts were measured in HEK293 cells using RT-qPCR with relative mRNA expression calculated by comparison to the control sample in which no crRNA is expressed. […] Cells were collected at various time points and relative mRNA expression levels were measured by RT-qPCR compared to a negative control. […]

[1] = bi-partite with dLbCpf1-DmrA fusions
[2] = bi-partite, with dLbCpf1 fusions harboring two, three or four DmrA domains

Molecule	activation of transcription (AR)	dependence of maximal activation on A/C heterodimerizer drug (HBB; [1])	maximum level of activation relative to direct dLbCpf1-VPR fusions (HBB; [1])	activation of transcription (HBB; [2])	dependence of maximal activation on A/C heterodimerizer drug (NPY1R; [1])	maximum level of activation relative to direct dLbCpf1-VPR fusions (NPY1R; [1])	activation of transcription (NPY1R; [2])	magnitude of activation somewhat lower than with expression of a single crRNA (HBB, AR, and NPY1R) [%]
DmrC-VPR: CAG-DmrC-NLS-FLAG-VPR; DmrC dimerization domain fused to VPR activator (SEQ ID NO: 49)	lack of an effect	dependent on the presence of the A/C heterodimerizer drug	approximately half	activation	dependent on the presence of the A/C heterodimerizer drug	approximately half	activation	
multiplex crRNAs: three LbCpf1 crRNAs (HBB, AR, NPY1R) encoded on a single U6-driven transcript (SEQ ID NO: 58) (nucleic acid, misc_feature 1..397 crRNAs from Figure 2b) guide: GAGGGCCTATTTCCCATGATTCCTTCATATTTGCATATACGATACAAGGCTGTTAGAGAGATAATTAGAATTAATTTGACTGTAAACACAAAGATATTAGTACAAAATACGTGACGTAGAAAGTAATAATTTCTTGGGTAGTTTGCAGTTTTAAAATTATGTTTTAAAATGGACTATCATATGCTTACCGTAACTTGAAAGTATTTCGATTTCTTGGCTTTATATATCTTGTGGAAAGGACGAAACACCGAATTTCTACTAAGTGTAGATTACTGATGGTATGGGGCCAAAATTTCTACTAAGTGTAGATCTCTAGGAACCCTCAGCCCCAATTTCTACTAAGTGTAGATAAGCCTCGGGAAACTGCCCTAATTTCTACTAAGTGTAGATTTTTTTT								18 to 55
